BindingDB's records for doi:10.1016/j.bmcl.2005.06.091 (Schering-Plough Research Institute, 2005)
Numbered stars: 1 amine (or outer) side, 2 acyl side, 3 side chain; on linkers, the order of the positions; unused ones are H or OH. Square brackets hold non-standard residues; d marks the D form. Peptide text beside a SMILES is read from it. * marks the point of attachment. Isobutyloxycarbonyl = CC(C)COC(=O)*; X1 = CCCC(N[*:1])C(=O)C(=O)[*:2]

Molecular target: Genome polyprotein (Hepatitis C virus genotype 1a (isolate H77), UniProt P27958)
Assay: Continuous Spectrophotometric Assay
Settings: pH 6.5; 30 °C
Method: Proteolytic cleavage of the ester linkage between the Nva (L-norvaline) and the chromophore (PAP) was monitored for change in absorbance at 370 nm. Initial velocities were determined using linear regression and kinetic constants were obtained by fitting the data to the Michaelis-Menten equation.

Chain of Genome polyprotein (P27958 1027-1657 limits assumed): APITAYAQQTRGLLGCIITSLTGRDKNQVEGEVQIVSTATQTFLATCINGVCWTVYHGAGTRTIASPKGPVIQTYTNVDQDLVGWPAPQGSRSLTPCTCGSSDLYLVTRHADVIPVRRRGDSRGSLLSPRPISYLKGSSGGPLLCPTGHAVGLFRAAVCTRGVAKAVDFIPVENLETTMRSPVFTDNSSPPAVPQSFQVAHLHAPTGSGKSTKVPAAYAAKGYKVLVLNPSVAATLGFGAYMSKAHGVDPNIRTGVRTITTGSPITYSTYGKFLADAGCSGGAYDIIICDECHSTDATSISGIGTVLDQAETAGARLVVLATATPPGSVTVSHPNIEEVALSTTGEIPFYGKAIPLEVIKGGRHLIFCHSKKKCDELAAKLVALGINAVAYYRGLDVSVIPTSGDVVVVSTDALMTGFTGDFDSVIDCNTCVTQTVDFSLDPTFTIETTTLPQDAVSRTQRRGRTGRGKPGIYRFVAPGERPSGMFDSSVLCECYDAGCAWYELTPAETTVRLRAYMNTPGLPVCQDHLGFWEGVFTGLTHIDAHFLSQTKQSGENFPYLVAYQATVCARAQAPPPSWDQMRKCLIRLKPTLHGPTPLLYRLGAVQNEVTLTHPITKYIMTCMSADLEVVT

CCCC(NC(=O)[C@@H]1CCCN1C(=O)[C@@H](NC(=O)OCC(C)C)C(C)C)C(=O)C(=O)NCC(=O)N[C@@H](CC(=O)O)C(=O)O (stereo partly drawn) [1,4-disodium (2S)-2-[2-(3-{[(2S)-1-[(2S)-3-methyl-2-{[(2-methylpropoxy)carbonyl]amino}butanoyl]pyrrolidin-2-yl]formamido}-2-oxohexanamido)acetamido]butanedioate] (Isobutyloxycarbonyl-VP[X1]GD-OH) was tested, and the Ki was > 100 µM.

In the case of CCCC(NC(=O)[C@@H]1CCCN1C(=O)[C@@H](NC(=O)OCC(C)C)C(C)C)C(=O)C(=O)NCC(=O)N[C@@H](CCC(=O)O)C(=O)O (stereo partly drawn) [1,5-dilithio (2S)-2-[2-(3-{[(2S)-1-[(2S)-3-methyl-2-{[(2-methylpropoxy)carbonyl]amino}butanoyl]pyrrolidin-2-yl]formamido}-2-oxohexanamido)acetamido]pentanedioate] (Isobutyloxycarbonyl-VP[X1]GE-OH), the Ki is reported as > 100 µM.
